Assay results as given in PMC9688344, “[^225Ac]Ac-SibuDAB for Targeted Alpha Therapy of Prostate Cancer: Preclinical Evaluation and Comparison with [^225Ac]Ac-PSMA-617” (Cancers, 2022).
Values joined by “and” are separate entries in the source; they are usually repeats but may differ in a detail not shown here. Equal entries are not always repeated. “Also recorded” adds a separate entry of the source.

Tests used:
[1] = PBS/n-octanol distribution coefficient (logD); type: physicochemical; details: PBS pH 7.4/n-octanol
[2] = Radioligand integrity by thin-layer chromatography; type: physicochemical; details: over a period of 48 h
Protocol: The PSMA ligands used in this study were synthesized using solid-phase chemistry methods as previously reported. The labeling of the PSMA ligands with actinium-225 was performed at ITM Medical Isotopes GmbH, Munich, Germany (Supplementary Material: Section S1). The radioligands (~50 kBq/nmol; ~0.5 MBq/mL) were shipped to the Paul Scherrer Institute (PSI) overnight followed by assessing their integrity using thin-layer chromatography. […] Depending on the experiment, the molar activity of the radioligands was adjusted by adding unlabeled ligand and the final formulation was prepared by adding vehicle (saline with 0.05% bovine serum albumin (BSA)) to obtain the desired activity concentration. Radiolabeling of SibuDAB with lutetium-177 (5–10 MBq/nmol) was performed as previously reported.

[3] = tested on: PSMA-positive PC-3 PIP cells; test: Cell uptake and internalization; type: cell-based; details: 4 h incubation; % of total added activity
PSMA = molecular target: T1, PSMA (Homo sapiens, UniProt Q04609); test: PSMA-binding affinity (KD values) on PC-3 PIP cells; details: on ice
T1 construct: expressed in transfected cells; host or cells: PC-3 PIP prostate cancer cells (transduced to express PSMA), provided by Prof; Dr. Martin Pomper, Johns Hopkins University
T1 sequence (Q04609 whole entry): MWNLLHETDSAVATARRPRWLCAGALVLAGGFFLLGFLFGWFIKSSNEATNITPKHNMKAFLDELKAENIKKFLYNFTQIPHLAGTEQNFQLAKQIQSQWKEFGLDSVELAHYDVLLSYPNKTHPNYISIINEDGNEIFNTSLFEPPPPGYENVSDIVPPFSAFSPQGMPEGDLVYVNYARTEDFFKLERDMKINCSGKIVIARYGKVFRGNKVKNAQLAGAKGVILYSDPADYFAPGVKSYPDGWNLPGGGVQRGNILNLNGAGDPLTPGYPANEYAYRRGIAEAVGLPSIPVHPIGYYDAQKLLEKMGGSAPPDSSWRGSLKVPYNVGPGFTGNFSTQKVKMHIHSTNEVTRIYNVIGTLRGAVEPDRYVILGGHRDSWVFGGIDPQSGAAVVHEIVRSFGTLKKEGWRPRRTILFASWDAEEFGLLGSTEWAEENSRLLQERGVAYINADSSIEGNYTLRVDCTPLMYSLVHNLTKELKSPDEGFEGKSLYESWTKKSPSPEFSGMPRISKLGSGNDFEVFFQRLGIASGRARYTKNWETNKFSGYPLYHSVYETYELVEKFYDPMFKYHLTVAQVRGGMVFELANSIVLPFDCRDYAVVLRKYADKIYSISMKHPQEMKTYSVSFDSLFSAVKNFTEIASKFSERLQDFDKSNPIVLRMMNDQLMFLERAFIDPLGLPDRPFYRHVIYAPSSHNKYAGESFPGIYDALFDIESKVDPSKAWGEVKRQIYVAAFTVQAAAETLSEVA

[4] = tested on: PSMA-positive PC-3 PIP tumor xenografts; test: Therapy study in PC-3 PIP tumor-bearing mice; type: in vivo, BALB/c nude mice
Protocol: Five days after subcutaneous inoculation of four groups of mice with either PC-3 PIP or PC-3 flu tumor cells on the right shoulder (4 × 10^6 cells in 100 μL HBSS), the mice were intravenously injected with either vehicle only (saline with 0.05% BSA, n = 6 and n = 4, respectively) or with 30 kBq [^225Ac]Ac-SibuDAB (1 nmol per mouse; n = 4 per group) diluted in vehicle (Table 1).
After tumor cell inoculation, mice bearing PC-3 PIP tumor xenografts were intravenously injected with vehicle only (n = 6) or with [^225Ac]Ac-SibuDAB or [^225Ac]Ac-PSMA-617, respectively, applied at 5 kBq or 10 kBq (1 nmol per mouse; n = 6 per group; Table 1). The control group consisted of mice from several studies (n = 12 mice) and the data from this group were published previously.
After administration of the radioligands, the mice were monitored over 8 weeks using the same measures as previously published by Umbricht et al.. The relative body mass was defined as [BMx/BM0], where BMx is the body mass in grams at a given Day x and BM0 is the body mass in grams at Day 0. The tumor dimension was determined by measuring the longest tumor axis (L) and its perpendicular axis (W) with a digital caliper. The tumor volume (V) was calculated according to the equation [V = 0.5 × (LW^2)]. The relative tumor volume was defined as [TVx/TV0], where TVx is the tumor volume in mm^3 at a given Day x, and TV0 is the tumor volume in mm^3 at Day 0. Endpoint criteria that required euthanasia were defined as (i) body mass loss of >15%, (ii) a tumor volume of >800 mm^3, (iii) a combination of body mass loss of >10% and a tumor volume of >700 mm^3 or, (iv) signs of unease and pain or a combination thereof using a scoring system as previously reported. The median survival of mice of each group was assessed with Kaplan–Meier curves. Potential early side effects for mice that survived until study end were determined based on blood chemistry and organ-to-brain mass ratios on Day 56 by comparison to values obtained from an additional group of therapy-naïve mice (n = 4) without tumors but of the same age (Supplementary Material: Section S9).
Table S10. Biodistribution data and tumor-to-background ratios obtained in PC3-PIP/flu tumor-bearing mice 48 h after injection of [225Ac]Ac-SibuDAB, [177Lu]Lu-SibuDAB, [225Ac]Ac-PSMA-617 or [177Lu]Lu-PSMA-617. Decay-corrected data of accumulated activity are shown as [% IA/g]-values, representing the average ± SD.
Biodistribution data at 48 h p.i.
1 Data of [177Lu]Lu-PSMA-617 were previously published by Benešová et al., Mol Pharm 2018 [2]; Copyright 2018, American Chemical Society.
Purpose: In order to determine the therapeutic efficacy of [225Ac]Ac-SibuDAB in com-parison to [225Ac]Ac-PSMA-617 as well as the 177Lu-labeled counterparts, therapy studies were conducted in PC-3 PIP xenograft-bearing BALB/c nude mice.
Methods: The methods of the therapy study to assess the therapeutic efficacy of [225Ac]Ac-SibuDAB are reported in the main manuscript. An additional group of mice was treated with 10 MBq (1 nmol) [177Lu]Lu-SibuDAB under the same experimental condi-tions. Data previously acquired by our group for mice treated with 5 MBq [177Lu]Lu-SibuDAB were published by Borgna & Deberle et al. and data of mice treated with 5 MBq or 10 MBq [177Lu]Lu-PSMA-617 were previously published by Tschan et al. and Umbricht et al., respectively.
Results: The assessment of the PSMA-specific therapeutic effect of [225Ac]Ac-SibuDAB as well as the comparison to [225Ac]Ac-PSMA-617 are described in the main ar-ticle. The body mass of effectively treated mice, in which the tumor disappeared entirely […]
tumor-bearing mice that were treated with only vehicle as well as for some mice that were treated with 5 kBq or 10 kBq [225Ac]Ac-PSMA-617 and experienced a relapse in tumor

Compound | logD value [1] | intact radioligand [2] [%] | Cell uptake [3] [%] | Internalization (internalized fraction) [3] [%] | Kd (PSMA) [nM] | Day of first endpoint ([4]; 5 kBq) | Day of last endpoint ([4]; 5 kBq) | Median Survival ([4]; 5 kBq) | Number of Mice Alive on Day 56 ([4]; 5 kBq) | Tumor response ([4]; 5 kBq) | Day of first endpoint ([4]; 10 kBq) | Day of last endpoint ([4]; 10 kBq) | Median Survival ([4]; 10 kBq) | Number of Mice Alive on Day 56 ([4]; 10 kBq) | also measured
O=C([O-])CN1CCN(CC(=O)[O-])CCN(CC(=O)NCC2CCC(C(=O)NC(Cc3ccc4ccccc4c3)C(=O)NCCCCC(NC(=O)NC(CCC(=O)O)C(=O)O)C(=O)O)CC2)CCN(CC(=O)[O-])CC1.[225Ac+3] (stereo not shown) [[^225Ac]Ac-PSMA-617] | ≤ −3.9 | > 99 | 63 ± 5 | 19 ± 3 | 11 | 42 | 56 | 46 days | one out of six and 1/6 | tumor regrowth was observed | 38 | 56 | >56 ^3 days | four out of six and 4/6 | –
CC(C)Cc1ccc(C(C)C(=O)NC(CCN)C(=O)NCCCCC(NC(=O)CN2CCN(CC(=O)[O-])CCN(CC(=O)[O-])CCN(CC(=O)[O-])CC2)C(=O)NCC2CCC(C(=O)NC(Cc3ccc4ccccc4c3)C(=O)NCCCCC(NC(=O)NC(CCC(=O)O)C(=O)O)C(=O)O)CC2)cc1.[225Ac+3] (stereo not shown) [[^225Ac]Ac-SibuDAB] | −2.5 ± 0.1 | > 99 | 59 ± 1 | 25 ± 5 | 17 | 56 ^2 | 56 ^2 | >56 ^3 days | 6/6 | sufficient to eradicate the tumors; also recorded: effectively eradicated tumors of all mice; also recorded: no tumors were visible at Day 56 | 56 ^2 | 56 ^2 | >56 ^3 days | 6/6 | Tumor response ([4]; 5 kBq, listed as [225Ac]Ac-SibuDAB): no tumors were visible 56 days after; also recorded: no tumor visible on Day 56; Tumor response ([4]; 10 kBq): effectively eradicated tumors of all mice; Tumor response ([4]; 10 kBq, listed as [225Ac]Ac-SibuDAB): no tumor visible on Day 56; Day of first endpoint ([4]; 30 kBq): 56 ^2; Day of last endpoint ([4]; 30 kBq): 56 ^2; Median Survival ([4]; 30 kBq): >56 ^3 days; Number of Mice Alive on Day 56 ([4]; 30 kBq): 4/4; Tumor response ([4]; 30 kBq): eradicated PSMA-positive PC-3 PIP tumors entirely; Tumor response ([4]; 30 kBq, listed as [225Ac]Ac-SibuDAB): no tumor visible on Day 56
